Experiment [1] relates to U87MG/EGFRvIII cells. Nature of the experiment: Proliferation of U87MG/EGFRvIII cells. It is filed as cell-based. On the procedure:
After structure-activity relationship (SAR) analysis, it was identified that that most compounds contained two aromatic rings bridged through an amide group.
(§1) To explore the anti-proliferative effects of MNPC, U87MG/EGFRVIII cells were treated with different doses of MNPC (0, 0.1, 0.5, 1 and 5 μM) for 5 days. […] Asparagine endopeptidase (AEP) is frequently overexpressed in numerous human cancers and mediates cancer cell invasion and metastasis. […] Since NQO1 and GSTP1 are the major binding proteins of MNPC, in vitro reductase enzyme activity assays with purified recombinant proteins was conducted. […] NQO1 also acts as an antioxidant enzyme by regenerating antioxidant forms of ubiquinone and vitamin E quinone. To explore whether the oxidative stress levels are correlated with the expression levels of antioxidant enzymes: NQO1 and GSTP1, the cellular ROS concentrations and cytotoxicity after MNPC treatment was examined. […] Thus, MNPC inhibits GSTP1 and NQ01 enzyme activities without altering their protein levels. […] The results were also confirmed by TUNEL assay.

The target in experiment [2] is T1, NQO1 (Homo sapiens, UniProt P15559). The experiment can be described thus: BIACORE binding assay, NQO1. As to conditions: MNPC immobilized to the chip.
The target of experiment [3] is T2, GSTP1 (Homo sapiens, UniProt P09211). The experiment can be described thus: BIACORE binding assay, GSTP1. The note with it: MNPC immobilized to the chip. (In general: SPR reads the build-up and loss of mass on a sensor chip optically.)
Experiment [4] concerns the target T1, NQO1. The experiment can be described thus: In vitro reductase enzyme activity assay, NQO1. The experiment is classed as biochemical. As to conditions: purified recombinant protein. As to the method:
as §1

The target in experiment [5] is T2, GSTP1. The experiment can be described thus: In vitro enzyme activity assay, GSTP1. As to conditions: purified recombinant protein. It is filed as biochemical. On the procedure:
as §1

Experiment [6] relates to U87MG/EGFRvIII cells. Nature of the experiment: Cell invasion assay. It is filed as cell-based. As to the method:
as §1

Experiment [7] concerns the target T3, Asparagine endopeptidase (AEP) (Homo sapiens, UniProt Q99538).
T3 construct: endogenous in cells; host or cells: U87MG/EGFRvIII (inferred from context)
T3 sequence (Q99538 18-323): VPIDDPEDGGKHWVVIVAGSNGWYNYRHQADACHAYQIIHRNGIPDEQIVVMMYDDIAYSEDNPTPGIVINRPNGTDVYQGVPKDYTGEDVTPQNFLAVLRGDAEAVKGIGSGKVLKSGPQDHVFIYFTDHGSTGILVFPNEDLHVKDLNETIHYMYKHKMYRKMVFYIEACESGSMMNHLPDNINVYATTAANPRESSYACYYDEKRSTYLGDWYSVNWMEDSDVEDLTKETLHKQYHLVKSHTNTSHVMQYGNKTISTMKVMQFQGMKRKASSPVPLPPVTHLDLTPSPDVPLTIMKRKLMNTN
Nature of the experiment: AEP enzymatic activity assay. The experiment is classed as cell-based. On the procedure: as §1

Experiment [8] relates to U87MG/EGFR cells. The experiment can be described thus: Cellular oxidative stress and cytotoxicity after MNPC treatment. The experiment is classed as cell-based. On the procedure:
as §1

In experiment [9] the test system is U87MG/EGFRvIII cells. The experiment can be described thus: Apoptosis (caspase-3 activation, TUNEL assay). The experiment is classed as cell-based. On the procedure: as §1
Experiment [10] relates to NQO1. The experiment can be described thus: NQO1 protein level upon treatment. It is filed as cell-based. The note with it: upon MNPC treatment. As to the method:
as §1

Experiment [11] concerns GSTP1. The experiment can be described thus: GSTP1 protein level upon treatment. It is filed as cell-based. The note with it: upon MNPC treatment. On the procedure:
as §1

The test system of experiment [12] is U87MG/EGFRvIII cells. The experiment can be described thus: Murine intracranial xenograft model with U87MG/EGFRvIII cells. It is filed as in vivo, Nu/Nu nude mice. As to the method:
Nu/Nu nude mice were treated with increasing doses (3, 10 mg/kg) of MNPC by i.p. every two days for total 10 times (n=6 mice per group). The survival curves of brain tumor-bearing mice were calculated.
To assess the therapeutic potential of MNPC, a murine intracranial xenograft model was used, inoculated with U87MG/EGFRvIII cells. After 7 days of brain injection of the GBM cells and the tumor formation, the animals were treated with vehicle or different doses of MNPC (3 or 10 mg/kg) every 2 days for a total of 10 times. […] The ROS levels and signaling cascades were examined in the tissue samples derived from tumors extracted from MNPC or vehicle-treated mice.

For experiment [13], the target named is T1, NQO1. Nature of the experiment: Co-crystal structure with NQO1. As to the method:
(§2) Experiments indicate that both NQO1 and GSTP1 were overexpressed in GBM, which inhibit the oxidative stress and prevent cancer cell death. Compounds which act as NQO1 and GSTP1 dual inhibitors suppress the proliferation and stimulated apoptosis in U87MG/EGFRVIII cells. […] Thus, these experiments indicate that a small dual inhibitor for both NQO1 and GSTP1 disrupting the redox homeostasis might be an innovative strategy for GBM therapy.

Experiment [14] has as its target T2, GSTP1. Nature of the experiment: Co-crystal structure with GSTP1. On the procedure: as §2
[15] abbreviates: 3 or 10 mg/kg i.p. every 2 days, 10 times, especially 10 mg/kg.

The structures appear in SMILES notation. pIC50, pKd: −log10 of the molar value. “Also recorded” adds a separate entry of the source.

Take `O=C(Nc1ncc([N+](=O)[O-])s1)c1ccccc1O` [TIZ, 2-hydroxy-N-(5-nitrothiazol-2-yl)benzamide]: the “anti-proliferative activities toward U87MG/EGFRvIII cells compared with MNPC” value in experiment [1] is recorded as “comparable anti-proliferative activities”.
Consider `CC(=O)Oc1ccccc1C(=O)Nc1ncc([N+](=O)[O-])s1` [NTZ, 2-((5-nitrothiazol-2-yl)carbamoyl)phenyl acetate], for which the “anti-proliferative activities toward U87MG/EGFRvIII cells compared with MNPC” value in experiment [1] is on record as “comparable anti-proliferative activities”.
On to `Cc1onc(-c2ccccc2)c1C(=O)Nc1ncc([N+](=O)[O-])s1` [MNPC, 5-methyl-N-(5-nitrothiazol-2-yl)-3-phenylisoxazole-4-carboxamide], for which the cell proliferation entry in [1] (U87MG/EGFRVIII cells, 0, 0.1, 0.5, 1 and 5 μM for 5 days) is “dose-dependently inhibited”. For the same compound, in experiment [2], the pKd was 7.04. The pKd in experiment [3] was 7.05. Besides, the pIC50 in [4] was 6.03. In experiment [5], the pIC50 is 6.10. In addition, the cell invasion entry in [6] is recorded as “no significant difference”. In addition, the AEP enzymatic activity result in [7] was “no significant difference”. Moreover, in experiment [8], the “Carbonyl Expression” value was “escalated”. Further, in experiment [8] (cytotoxicity), the LDH entry is “escalated”. Also, the ROS levels result in experiment [8] (dose-dependent) was “increased”. Also, the GSH/GSSH ratios entry in [8] (in a dose-dependent manner) was “down-regulated”. The cell apoptosis entry in experiment [9] (TUNEL assay) was “dose-dependently increases”. Further, the caspase-3 activation result in [9] (U87MG/EGFRvIII cells) was “induced”. In addition, the “protein level of NQO1” value in experiment [10] is listed as “not changed”. The “protein level of GSTP1” value in experiment [11] was “not changed”. The “tumor growth (intracranial tumor volume)” value in [12] (3 or 10 mg/kg i.p. every 2 days, 10 times) is given as “dose-dependent anti-tumor effect; also recorded: suppresses tumor growth”. In experiment [12] (setting [15]), the body weight entry was “significantly increased” and the survival rates entry was “prolonged the survival rate; also recorded: significantly increased; also recorded: elongates mouse life span”. In addition, in [12] (tumors from treated mice), the “ROS levels in tumor tissue samples” value is “strongly increased” and the “apoptotic caspase 3 in tumor tissue samples” value is “activated”. Further, the “effect on NQO1 active site in co-crystal structure” value in experiment [13] is listed as “blocked the active enzymatic sites”. In addition, the “effect on GSTP1 active site in co-crystal structure” value in [14] is given as “blocked the active enzymatic sites”.

In general, pKd refers to the negative decadic logarithm of the Kd, by convention in mol/L. Usually pIC50 stands for the negative decadic logarithm of the IC50, by convention in mol/L.

The values above are taken from patent publication US12478614B2, “Inhibitors of glutathione s-transferases (GSTs) and NAD(P)H:quinone oxidoreductase 1 (NQO1), pharmaceutical compositions, and uses in managing cancer” (Emory University, priority 2020, dated 2025).
